The test system of experiment [1] is E. coli K-12. Description: Broth microdilution MIC (CLSI), confirmed by time-kill kinetics. The class given is cell-based, Escherichia coli. The conditions noted are these: E. coli K-12, gold standard overnight methods. Here is the method: (§1) Escherichia coli (E. coli) strain K-12 was used as a model bacterial strain in all experiments with ampicillin, gentamicin, and ceftriaxone. Multi-drug resistant (MDR) E. coli strain PS00278A (porcine isolate) was tested with ampicillin and gentamicin to contrast with the susceptible model bacterial strain. Staphylococcus aureus (S. aureus) strain PS00975A (human clinical isolate) was used with ampicillin to evaluate the methods' performance on a Gram-positive microorganism. Cultures were stored as a frozen stocks at −80° C. and resuscitated every 14 days to maintain a fresh inoculum. The culture was resuscitated by streaking onto Muller Hinton Agar (MHA) and was then incubated at 37° C. 20+/−2 h. A single colony from the MHA agar was re-streaked on a fresh MHA plate and incubated at 37° C. 20+/−2 h. A single colony from the MHA sub-streak plate was inoculated into 10 mL Muller Hinton Broth (MHB) and incubated at 37° C., shaking at 210 rpm, for 20+/−2 h. The overnight culture was diluted in MHB based on the OD600 to obtain 5×10^5 CFU/mL using a BioPhotometer D30 (Eppendorf, Hauppauge, N.Y.). An OD600 of 1 was considered to be equal to 8×10^8 CFU/mL, based on an E. coli OD600-CFU/ml standard curve.
(§2) The 5×10^5 CFU/mL culture was used for broth microdilution and speckle imaging. […] The CLSI guideline M100 ED30:2020 was used to define clinical resistance based on determined MICs. […] MIC was determined by visually inspecting wells for turbidity resulting from culture growth.
Broth macrodilution was used to determine the time-kill kinetics of all strains, Culture in concentration of 5×10^5 CFU/mL was first grown for 1 hour at 37° C. in a shaking condition (210 rpm) and was then exposed to antibiotic concentrations of 0×MIC (control), 1×MIC, and 2×MIC that were previously determined via broth microdilution. Viable cells were quantified at times 0, 1, 2, 3, 5, 8, 16, and 24 hours by spiral plating (easySpiral, Interscience) 10-fold dilutions onto MHB agar. Inoculated plates were incubated at 37° C. for 16-20 hours and counted to determine the CFU/mL at each time point. […]

Experiment [2] deals with E. coli K-12. Description: Average intensity of raw dynamic laser speckle images. It is filed as cell-based. Particulars: Escherichia coli, K12; E. coli K-12, simple intensity measurement (false positive vs overnight MIC); read-out: MIC determined from speckle intensity data. On the procedure:
A helium-neon laser (wavelength: 632.8 nm, power: 0.8 mW, HNLS008L, Thorlabs Inc., USA) was used as an illumination source. The laser beam was slightly expanded by using a concave lens (focal length=−25.0 mm) before illuminating a cuvette (Fisherbrand, CAS#14-955-129) containing 3 mL of bacterial suspension. The resultant speckle pattern was captured by a CMOS camera (Zyla, ANDOR), interfaced to a computer. Note that other methods, such as an inverse telescope beam expander, can also be used to increase the incident laser beam size. Our choice of a diverging lens is due to its simplicity and compactness as well as the fact that an explicit physical model is not needed for the machine learning based analysis, which relaxes the requirement of a plane-wave incident beam as commonly used in dynamic light scattering. […]
The OD data and the average intensity values obtained from raw speckle patterns (examples shown in FIG. 2) are shown in FIG. 3A-B and FIG. 3C-D for ampicillin and gentamicin, respectively. […] While the OD values for different antibiotic concentrations are below the detection limit of the OD reading even after 120 min, the average speckle intensity values are distinguishable in 90 min. […]

Experiment [3] deals with MDR E. coli PS00278A. The conditions noted are these: CLSI guideline M100 ED30:2020, tested on MDR E. coli; cited from earlier work.
Experiment [4] has as its system MDR E. coli PS00278A. Description: Broth microdilution MIC (CLSI). The class given is cell-based, Escherichia coli. On the procedure:
as §1, with “An OD600 of 1 was considered to be equal to 8×10^8 CFU/mL, based on an E. coli OD600-CFU/ml standard curve.” left out
as §2

For experiment [5], the system named is E. coli K-12. Description: DyRAST: ANN pixel-level prediction on DLSI data with voting. It is filed as cell-based, Escherichia coli. The conditions noted are these: 2×MIC. Here is the method:
For DLSI-based AST, the culture grown as outlined above was adjusted to 5×10^5 CFU/mL and was further incubated at 37° C., 210 rpm for 1 h to reach the logarithmic growth phase before an antibiotic was added to the culture in concentrations equal to 0×MIC (control), 0.5×MIC, 1×MIC, and 2×MIC. Three mL of each culture were collected at each time point, ti (i=0, 1, . . . , 4) at 0, 30 min, 60 min, 90 min, and 120 min, respectively, and transferred into the cuvette used for DLSI in the imaging system described above. At each ti, a dynamic speckle patterns series (16 bits, 1000×2000 pixels, 50 frames per second) was collected. The exposure time for each frame was 1 msec (millisecond) and the full capture period was 10 sec at each time point, ti. All experiments were conducted in independent triplicates.
The raw images (1000×2000) were first resized (100×200) using the nearest neighbor method to reduce the computational cost. The camera has a pixel size of 6.5 μm, corresponding to a 6.5 mm×13 mm detection area. Fourier Transform (FT) was performed along the time axis of the measured data cube. […]
The experimental replicates are pooled, processed together, and then divided randomly into training, validation, and test groups. […] Binary classification for the “Inhibited” and “Non-Inhibited” bacteria groups was determined with the input from frequency domain for each pixel. […]

[6] abbreviates: Escherichia coli, K12, read-out: MIC.

The text below walks through data of US20230067015A1, “SYSTEMS AND METHODS FOR ANTIBACTERIAL SUSCEPTIBILITY TESTING USING DYNAMIC LASER SPECKLE IMAGING” (The Penn State Research Foundation, priority 2020, published 2023).

≈ marks a conversion by molar mass, not a printed value. Read-outs that look alike come from different tables or passages of the source.

For orientation: MIC means the least concentration at which growth counts as inhibited.

As for `CO/N=C(\C(=O)N[C@@H]1C(=O)N2C(C(=O)O)=C(CSc3nc(=O)c(=O)[nH]n3C)CS[C@H]12)c1csc(N)n1` [ceftriaxone], in the experiment on E. coli K-12 [1] (setting [6]), the MIC came to 0.0625 µg/mL (≈ 0.113 µM).

Consider `CC1(C)S[C@@H]2[C@H](NC(=O)[C@H](N)c3ccccc3)C(=O)N2[C@H]1C(=O)O` [ampicillin, Ampicillin], for which the minimal inhibitory concentration (MIC) in the experiment on E. coli K-12 [2] turned out to be 2 µg/mL (≈ 5.72 µM); in the experiment on E. coli K-12 [1] (setting [6]) it was 4 µg/mL (≈ 11.4 µM); with MDR E. coli PS00278A [4] (Escherichia coli, read-out: MIC), 2000 µg/mL (≈ 5720 µM). In the experiment on MDR E. coli PS00278A [3], the “intermediate breakpoint concentration (clinical resistance diagnosis breakpoint)” value was 16 µg/mL. The “predicted percentage of classification as "Inhibited"” value with E. coli K-12 [5] (30 min) is recorded as around 50%. In addition, the “predicted percentage of classification as "Inhibited" (votes)” value with E. coli K-12 [5] (60 min) is recorded as “more than 80%”.

For gentamicin, in the experiment on MDR E. coli PS00278A [3], the “intermediate breakpoint concentration (clinical resistance diagnosis breakpoint)” value is 8 µg/mL. Further, the MIC was determined as 2 µg/mL with E. coli K-12 [1] and 128 µg/mL against MDR E. coli PS00278A [4].
